From patent US9421186B2, “Method for improving therapy for autoimmune diseases such as rheumatoid arthritis” (priority 2012, dated 2016)
Read-outs that look alike come from different tables or passages of the source. Each block holds one compound with its values, some of them ahead of it.

How the values were obtained:
[1] = tested on: HepG2 cells; details: human, 24 h
Procedure: (§1) HepG2 cells floating in a Dulbecco's modified Eagle's medium (DMEM) containing 10% fetal bovine serum (FBS) were inoculated at a concentration of 3.5×10^4 cells/0.1 mL/well to a 96-well plate and cultured at 37° C. for approximately 24 hours in a 5% CO2 atmosphere. Then, the medium was replaced by DMEM containing iguratimod and methotrexate and containing 0.5% FBS, and the cells were further cultured therein for 24 hours. In this context, iguratimod was dissolved in a 1.12-fold molar quantity of 0.1 mol/L sodium hydroxide solution, diluted with distilled water, and then added to the culture solution. Methotrexate was dissolved in dimethyl sulfoxide (DMSO) and added to the culture solution. Test substance-free DMEM containing 0.25% DMSO and 0.5% FBS was used in a control group.
(§2) After the completion of culture, each culture supernatant was separated, and the activity of lactate dehydrogenase (LDH) released outside the cells was determined using Cytotoxicity Detection Kit (LDH) (Roche Applied Science). In order to determine LDH activity in the whole cells, 0.1 mL of DMEM containing 2% Triton X-100 and 0.5% FBS was then added to each well after the culture supernatant separation to prepare a cell lysate. The LDH activity was determined in the same way as above.
(§3) The rate of LDH release (%) was calculated according to the formula shown below and indicated by the average value of each group. Its ratio with respect to the control group was also determined. Rate of LDH release (%)=Activity in the culture supernatant/(Activity in the culture supernatant+Activity in the cell lysate)×100

[2] = tested on: adjuvant arthritis; experiment: Adjuvant-induced arthritis in rats, paw swelling of both hind legs, therapeutic dosing (Test Example 2); assay type: in vivo, Lewis male rat; details: oral once a day for 7 days from day 18, 25th day; for Swelling rate: average of both hind legs; for Inhibition rate: vs control swelling rate
Procedure: A suspension of dead Mycobacterium tuberculosis in liquid paraffin (0.6 mg/0.1 mL) was intradermally injected to the base of tail of each Lewis male rat to induce adjuvant arthritis. On the 18th day after the induction of arthritis, the paw volumes of both hind legs were measured. The rats were grouped so that the paw volumes of both hind legs averaged out per group. The test substances were separately suspended or dissolved in 0.5% aqueous methylcellulose solutions to prepare dosing solutions, which were orally administered once a day for 7 days from the grouping date. In the case of combined administration, both test substances were simultaneously administered through an oral route.
The dose of iguratimod was set to 1 mg/kg, while the dose of prednisolone was set to 5 mg/kg. Alternatively, 1 mg/kg iguratimod and 5 mg/kg prednisolone were orally administered in combination.
1 mL of 0.5% aqueous methylcellulose solution per 100 g of body weight was orally administered to a control group that received no test substance after the grouping.
On the day after the final administration (on the 25th day after the induction of arthritis), the paw volumes of both hind legs were measured for each group. Subsequently, the rats were killed by blood removal. Then, their thymus glands, spleens, and adrenal glands were extirpated, and the weights were measured to calculate the ratio of each organ weight to 100 g body weight.

[3] = tested on: adjuvant arthritis; experiment: Adjuvant-induced arthritis in rats, paw swelling of left hind leg (Test Example 1); assay type: in vivo, Lewis male rat; details: oral once a day for 21 days; for Swelling rate: left hind leg, 21st day after arthritis induction; for Inhibition rate: vs control swelling rate, 21st day
Procedure: A suspension of dead Mycobacterium tuberculosis in liquid paraffin (0.6 mg/0.1 mL) was intradermally injected in the plantar region of left hind paw of each Lewis male rat to induce adjuvant arthritis. The paw volumes of both hind legs were measured using a plethysmometer on a daily basis from before to after the induction of arthritis. The test substances were separately suspended or dissolved in 0.5% aqueous methylcellulose solutions to prepare dosing solutions, which were orally administered once a day for 21 days from immediately after the adjuvant injection. In the case of combined administration, both test substances were simultaneously administered.
The dose of iguratimod was set to 3 mg/kg, while the dose of methotrexate was set to 0.1 mg/kg. Alternatively, 3 mg/kg iguratimod and 0.1 mg/kg methotrexate were administered in combination.
1 mL of 0.5% aqueous methylcellulose solution per 100 g of body weight was orally administered to an untreated normal group and a control group that received no test substance after the induction of arthritis.
On the day after the final administration (on the 21st day after the induction of arthritis), the paw volume of the left hind leg was measured for each group. Subsequently, peripheral blood was collected therefrom, and the reticulocyte count was measured.

[4] = tested on: HepG2 cells; experiment: Cellular damage of HepG2 cells, LDH release (Test Example 3); details: iguratimod 0, HepG2, 24 hours; for Rate of LDH release: control 14.2
Procedure: as §1, §2, §3

Rate of LDH release ([1]; 3 μg/mL): 15.9% | Rate of LDH release, ratio to control group ([1]; 3 μg/mL): 112% | Rate of LDH release ([1]; 30 μg/mL): 17.0% | Rate of LDH release, ratio to control group ([1]; 30 μg/mL): 120%
SMILES: CS(=O)(=O)Nc1cc2occ(NC=O)c(=O)c2cc1Oc1ccccc1 [Iguratimod, N-[7-[(methanesulfonyl)amino]-4-oxo-6-phenoxy-4H-1-benzopyran-3-yl]formamide]
Swelling rate ([2]; iguratimod 1 mg/kg): 76% | Inhibition rate ([2]; iguratimod 1 mg/kg): 28% | Swelling rate ([3]; iguratimod 3 mg/kg): 93% | Inhibition rate ([3]; iguratimod 3 mg/kg): 40%

SMILES: CN(Cc1cnc2nc(N)nc(N)c2n1)c1ccc(C(=O)N[C@@H](CCC(=O)O)C(=O)O)cc1 [Methotrexate, methotrexate]
Swelling rate ([3]; methotrexate 0.1 mg/kg): 114% | Inhibition rate ([3]; methotrexate 0.1 mg/kg): 26% | Rate of LDH release, ratio to control group ([4]; methotrexate 1 μg/mL): 172% | Rate of LDH release ([4]; methotrexate 1 μg/mL): 24.4% | Rate of LDH release, ratio to control group ([4]; methotrexate 10 μg/mL): 189% | Rate of LDH release ([4]; methotrexate 10 μg/mL): 26.8%

SMILES: C[C@]12C=CC(=O)C=C1CC[C@@H]1[C@@H]2[C@@H](O)C[C@@]2(C)[C@H]1CC[C@]2(O)C(=O)CO [Prednisolone, prednisolone]
Swelling rate ([2]; prednisolone 5 mg/kg): 66% | Inhibition rate ([2]; prednisolone 5 mg/kg): 37%
